{"source": "paper PMC10739250", "about": "(ACS Bio & Med Chem Au, 2023)", "key": {"[1]": {"test_system": "SARS-CoV-2/Canada/VIDO 01/2020", "assay_type": "cell-based", "conditions": "read-out: EC50 in the presence of the efflux inhibitor CP-100356"}, "[2]": {"conditions": "human, pH 7.4"}, "[3]": {"conditions": "rat hepatocytes, 0.5 ×10^6 cells/mL"}, "physchem [4]": {"assay": "physchem"}, "physchem [5]": {"assay": "physchem", "conditions": "thermodynamic from solid"}, "in vitro [6]": {"assay": "in vitro", "conditions": "human, microsomes"}, "in vitro [7]": {"assay": "in vitro", "conditions": "hamster, hepatocytes"}, "in vitro [8]": {"assay": "in vitro", "conditions": "human, hepatocytes"}}, "note": "pEC50: −log10 of the molar value.", "data": [{"smiles": "CC(C)(C)[C@H](NC(=O)C(F)(F)F)C(=O)N1C[C@H]2[C@@H]([C@H]1C(=O)N[C@H](C#N)C[C@@H]1CCNC1=O)C2(C)C", "note": "[Compound 1, nirmatrelvir]", "values": [{"measurement": "pEC50", "setting": "[1]", "value": 6.70}, {"measurement": "amount of metabolite Major", "setting": "[2]", "value": 100}, {"measurement": "amount of metabolite Minor A", "setting": "[2]", "value": "5.1 ± 0.8"}, {"measurement": "amount of metabolite Minor B", "setting": "[2]", "value": "2.3 ± 0.4"}, {"measurement": "increase of minor metabolites A and B on deuteration", "setting": "[2]", "value": 210, "unit": "%"}, {"measurement": "minor sites (Minor A and Minor B), share of total metabolites", "setting": "[2]", "value": "less than 10%"}, {"measurement": "hepatocyte stability, t1/2, rat", "setting": "[3]", "value": 244.7, "unit": "min"}, {"measurement": "logD", "setting": "physchem [4]", "value": 1.86}, {"measurement": "solubility thermodynamic", "setting": "physchem [5]", "value": 4.79, "unit": "mM"}, {"measurement": "half-life", "setting": "in vitro [6]", "value": 40.2, "unit": "min"}, {"measurement": "half-life", "setting": "in vitro [7]", "value": 57.4, "unit": "min"}, {"measurement": "half-life", "setting": "in vitro [8]", "value": "> 434", "unit": "min"}]}]}
